Tests used:
Assay in all cases: MTT viability assay (IC50)
AE-17 = format: cell-based, mouse; conditions: AE-17, ~60% confluency
Description: The following cell lines used in this study were obtained from ATCC, unless specified otherwise: Human T lymphoma cells Jurkat, human mesothelioma cells Meso-I, MM-BI, Ist-Mes, Ist-Mes-2 (Pass, H. I. et al. Characteristics of nine newly derived mesothelioma cell lines. Ann. Thorac. Surg. 59, 835-844 (1995)), human breast cancer cells MCF-7 (erbB2-low) and MDA-MB-453 (erbB2-high), human colorectal cells HCT-116, human hepatocarcinoma cells Huh-7, mouse mesothelioma cells AE17 (Jackaman, C. et al. IL-2 intratumoral immunotherapy enhances CD8+ T cells that mediate destruction of tumor cells and tumor-associated vasculature: a novel mechanism for IL-2. J. Immunol. […]
(§1) Toxicity of α-TOS, VE11S (“VES”), MitoVE3S, MitoVE5S, MitoVE7S, MitoVE9S, MitoVE11S (“MitoVES”), MitoVE11AE (“MitoVEAE”), MitoVE11F (“MitoVEF”), MitoVE11M (“MitoVEM”), and VES4TPP towards cancer cells was assessed on the basis of IC50, as detailed in Turanek, J., et al. ((2008). Liposomal formulation of vitamin E analogs as an efficient and selective anti-cancer treatment. Clin. Cancer Res. (submitted)). […]

H9c2 = format: cell-based, rat; conditions: H9c2, ~60% confluency
Description: (§2) The following cell lines used in this study were obtained from ATCC, unless specified otherwise: Human T lymphoma cells Jurkat, human mesothelioma cells Meso-I, MM-BI, Ist-Mes, Ist-Mes-2 (Pass, H. I. et al. Characteristics of nine newly derived mesothelioma cell lines. Ann. Thorac. Surg. 59, 835-844 (1995)), human breast cancer cells MCF-7 (erbB2-low) and MDA-MB-453 (erbB2-high), human colorectal cells HCT-116, human hepatocarcinoma cells Huh-7, mouse mesothelioma cells AE17 (Jackaman, C. et al. IL-2 intratumoral immunotherapy enhances CD8+ T cells that mediate destruction of tumor cells and tumor-associated vasculature: a novel mechanism for IL-2. J. Immunol. 171, […] (2003), human non-malignant mesothelial cells Met-5A, […] (Claycomb, W. C. et al. HL-1 cells: a cardiac muscle cell line that contracts and retains phenotypic characteristics of the adult cardiomyocyte. Proc. Natl. Acad. Sci. USA 95, 2979-2984 […]) and H9c2, and the human endothelial-like cells EAhy926 (Edgell, C. J., McDonald, C. C. & Graham, J. B. Permanent cell line expressing human factor VIII-related antigen established by hybridization. Proc. Natl. Acad. Sci. USA 80, 3734-3737 (1983)). Jurkat cells were grown in the RPMI medium while DMEM was used for other malignant cell lines and for Met-5A cells, supplemented with 10% FCS and antibiotics. HL-1 cells, maintained in fibronectin/gelatine-coated dishes, were grown in the Claycomb medium supplemented with noradrenalin (Claycomb, W. C. et al. HL-1 cells: a cardiac muscle cell line that contracts and retains phenotypic characteristics of the adult cardiomyocyte. Proc. Natl. Acad. Sci. USA 95, 2979-2984 […]), EAhy926 cells were grown in complete DMEM supplemented with HAT (Edgell, C. J., McDonald, C. C. & Graham, J. B. Permanent cell line expressing human factor VIII-related antigen established by hybridization. Proc. Natl. Acad. Sci. USA 80, 3734-3737 (1983)). Cells deficient in mtDNA (ρ^0 phenotype) were prepared as detailed in Weber, T. et al., (Mitochondria play a central role in apoptosis induced by α-tocopheryl succinate, an agent with anticancer activity. Comparison with receptor-mediated pro-apoptotic signaling. Biochemistry 42, 4277-4291 (2003)). Acquisition of the ρ^0 phenotype was confirmed by lack of expression by the cells of the mtDNA-encoded cytochrome c oxidase subunit II (COXII not shown). Chinese hamster lung fibroblasts deficient in complex I (B10 cells) (See, B. B. et al. Molecular remedy of complex I defects: rotenone-insensitive internal NADH-quinone oxidoreductase of Saccharomyces cerevisiae mitochondria restores the NADH oxidase activity of complex I-deficient mammalian cells. Proc. Natl. Acad. Sci. USA 95, 9167-9171 (1998)) and complex II (CybL^−/−; B9 cells) (Oostveen, F. G., Au, H. C., Meijer, P. J. & Scheffler, I. E. A Chinese hamster mutant cell line with a defect in the integral membrane protein CII-3 of complex II of the mitochondrial electron transport chain. J. Biol. Chem. 270: 26104-26108 (1995)) as well as the parental cells (B1 cells) (Oostveen, F. G., Au, H. C., Meijer, P. J. & Scheffler, I. E. A Chinese hamster mutant cell line with a defect in the integral membrane protein CII-3 of complex II of the mitochondrial electron transport chain. J. Biol. Chem. 270: 26104-26108 (1995)) were grown in DMEM with 10% FCS, antibiotics, 10 mg/ml glucose and non-essential aminoacids.
as §1

HL-1 = format: cell-based, rat; conditions: HL-1, ~60% confluency
Description: as §2, §1

Compound	IC50 (AE-17)	IC50 (H9c2)	IC50 (HL-1)
Cc1c(C)c2c(c(C)c1OC(=O)CCC(=O)O)CC[C@@](C)(CCC[C@H](C)CCC[C@H](C)CCCC(C)C)O2 [α-TOS, α-tocopheryl succinate, reference compound]	33 ± 5 µM	> 100 µM	> 100 µM
Cc1c(C)c2c(c(C)c1OC(=O)CCC(=O)[O-])CCC(C)(CCCCCCCCCCC[P+](c1ccccc1)(c1ccccc1)c1ccccc1)O2 (stereo not drawn) [MitoVE11S]	3.1 ± 0.7 µM	54 ± 8 µM	48 ± 6 µM

Source: US8598145B2, “Mitochondrially delivered anti-cancer compounds” (priority 2008, dated 2013)
